Assays:
Experiment in all cases: drug sensitivity score (DSS3, normalised partial AUC of % inhibition dose-response) (DSS (score)); higher = more sensitive (stronger inhibition of viability); extreme values may be limits of the assay
FMOC25_2 = patient-derived low-grade serous ovarian cancer cells; conditions: 72 h; library: FO5A; assay format: 2D, 384-well, CellTiter-Glo
Method in brief: (§1)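 The drug sensitivity score is calculated as a partial area under the percent-inhibition dose-response curve, divided by the log of the upper asymptote; higher scores mean more sensitive. For this score, early-passage (under 10) patient-derived ovarian cancer cells were exposed on 384-well flat clear-bottom plates to compounds at five concentrations across a 10,000-fold range for 72 h at 37 °C, 5% CO2. Viability was read with CellTiter-Glo and processed in Breeze.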

FMOC02_2 = patient-derived low-grade serous ovarian cancer cells; conditions: 72 h; library: FO5A; assay format: 2D, 384-well, CellTiter-Glo
Method in brief: as §1

FMOC22 = patient-derived mucinous ovarian cancer cells; conditions: 72 h; library: FO5A; assay format: 2D, 384-well, CellTiter-Glo
Method in brief: as §1

FMOC27 = patient-derived low-grade serous ovarian cancer cells; conditions: 72 h; library: FO5A; assay format: 2D, 384-well, CellTiter-Glo
Method in brief: as §1

FMOC11 = patient-derived high-grade serous ovarian cancer cells; conditions: 72 h; library: FO5A; assay format: 2D, 384-well, CellTiter-Glo
Method in brief: as §1

FMOC28 = patient-derived low-grade serous ovarian cancer cells; conditions: 72 h; library: FO5A; assay format: 2D, 384-well, CellTiter-Glo
Method in brief: as §1

FMOC02_3 = patient-derived low-grade serous ovarian cancer cells; conditions: 72 h; library: FO5A; assay format: 2D, 384-well, CellTiter-Glo
Method in brief: as §1

FMOC25_1 = patient-derived low-grade serous ovarian cancer cells; conditions: 72 h; library: FO4B; assay format: 2D, 384-well, CellTiter-Glo
Method in brief: as §1

FMOC09 = patient-derived high-grade serous ovarian cancer cells; conditions: 72 h; library: FO5A; assay format: 2D, 384-well, CellTiter-Glo
Method in brief: as §1

FMOC14 = patient-derived high-grade serous ovarian cancer cells; conditions: 72 h; library: FO5A; assay format: 2D, 384-well, CellTiter-Glo
Method in brief: as §1

FMOC04 = patient-derived high-grade serous ovarian cancer cells; conditions: 72 h; library: FO5A; assay format: 2D, 384-well, CellTiter-Glo
Method in brief: as §1

FMOC06 = patient-derived mucinous ovarian cancer cells; conditions: 72 h; library: FO5A; assay format: 2D, 384-well, CellTiter-Glo
Method in brief: as §1

FMOC17 = patient-derived low-grade serous ovarian cancer cells; conditions: 72 h; library: FO5A; assay format: 2D, 384-well, CellTiter-Glo
Method in brief: as §1

FMOC24 = patient-derived high-grade serous ovarian cancer cells; conditions: 72 h; library: FO5A; assay format: 2D, 384-well, CellTiter-Glo
Method in brief: as §1

FMOC02_1 = patient-derived low-grade serous ovarian cancer cells; conditions: 72 h; library: FO5A; assay format: 2D, 384-well, CellTiter-Glo
Method in brief: as §1

FMOC03 = patient-derived mucinous ovarian cancer cells; conditions: 72 h; library: FO5A; assay format: 2D, 384-well, CellTiter-Glo
Method in brief: as §1

Row | Structure (SMILES) | drug sensitivity score (FMOC25_2) | drug sensitivity score (FMOC02_2) | drug sensitivity score (FMOC22) | drug sensitivity score (FMOC27) | drug sensitivity score (FMOC11) | drug sensitivity score (FMOC28) | drug sensitivity score (FMOC02_3) | drug sensitivity score (FMOC25_1) | drug sensitivity score (FMOC09) | drug sensitivity score (FMOC14) | drug sensitivity score (FMOC04) | drug sensitivity score (FMOC06) | drug sensitivity score (FMOC17) | drug sensitivity score (FMOC24) | drug sensitivity score (FMOC02_1) | drug sensitivity score (FMOC03)
1 | Cn1cc(C2=C(c3cn(C4CCN(Cc5ccccn5)CC4)c4ccccc34)C(=O)NC2=O)c2ccccc21 [Enzastaurin] | 0 | 4.4 | 0.3 | 0.3 | 0 | 0 | 5.8 | 0 | 1.5 | 5 | 0 | 0 | 5.1 | 3.95 | 4.8 | 0.5
2 | COc1ccc(COc2cc3oc(=O)c4cc(C(C)O)ccc4c3cc2OC)cc1 (stereo unspecified) [Palomid-529] | 0.1 | 2.2 | 0 | 0 | 0.4 | 1.4 | 0 | 0 | 0.4 | 0 | 0 | 0 | 0 | 0 | 0 | 0
3 | Cn1nnc2c(C(N)=O)ncn2c1=O [Temozolomide] | 0 | 0 | 0 | 0 | 0 | 0.8 | 0 | 0 | 0 | 0 | 0 | 0 | 0.2 | 0 | 0 | 0
4 | COc1cc(Nc2ncc(F)c(Nc3ccc4c(n3)N(COP(=O)(O)O)C(=O)C(C)(C)O4)n2)cc(OC)c1OC [Fostamatinib] | 6.6 | 3.5 | 0.4 | 1.1 | 2.6 | 1.9 | 7.6 | 8.6 | 1.2 | 0 | 0 | 2.6 | 3.4 | 3.6 | 6.7 | 2.3
5 | C[C@@H](Nc1cc(F)cc(F)c1)c1cc(C(=O)N(C)C)cc2c(=O)cc(N3CCOCC3)oc12 [AZD-8186] | 2.1 | 2.6 | 0 | 5.3 | 1.8 | 1.6 | 3.3 | 1.5 | 2.4 | 0 | 0.75 | 3 | 4.9 | 0 | 1.5 | 1.6
6 | NS(=O)(=O)NCCNc1nonc1/C(=N/O)Nc1ccc(F)c(Br)c1 [Epacadostat] | 0 | 0 | 0 | 0 | 0 | 0.9 | 0.4 | 0 | 0 | 0 | 0 | 0.1 | 0 | 0.1 | 0 | 0

Reference: the supplement of paper PMC9938120
